Entries after “also recorded” stand apart in the source; their conditions may differ.

This note sets out measurements from article PMC10472371, “Discovery of E2730, a novel selective uncompetitive GAT1 inhibitor, as a candidate for anti‐seizure medication” (Epilepsia Open, 2023).

Assay [1] addresses T1, hNav1.2 (Homo sapiens, UniProt Q99250).
T1 construct: expressed in transfected cells; host or cells: CHO
Nature of the assay: Veratridine-induced hNav1.2 activation in CHO cells, membrane potential assay. The conditions noted are these: up to 100 μM, veratridine 50 μM. Format: cell-based. The procedure: Data represent the mean ± SEM of three independent experiments. Effects of E2730 and desipramine (Sigma-Aldrich, MO) on hNav1.2 activity were evaluated in CHO cells stably expressing hNav1.2 using a fluorescent-based membrane potential assay (Molecular Devices, CA). Activation of hNav1.2 was induced by veratridine (50 μM) and the change of fluorescence (excitation wavelength, 480 nm; emission wavelength, 540 nm) was recorded using Fluorescence Drug Screening System 6000 (Hamamatsu Photonics, Japan).

For assay [2], the system named is amygdala kindling rats. Nature of the assay: Amygdala kindling in rats. Type of assay: in vivo, rat. The source says: A tripolar electrode was implanted into the basolateral amygdala of Wistar‐Kyoto rats (male, 7 weeks old; Charles River Laboratories Japan, Japan). After at least 5 days of recovery, the amygdala was stimulated using an electronic stimulator at currents starting at 0.04 mA (50 Hz, 1 millisecond monophasic square‐wave pulses, 1‐second duration each) then increasing by 25% to a 30‐second duration until the after‐discharge threshold (ADT) was attained. ADT was defined as the current at which abnormal electroencephalogram and at least Racine's stage‐1 seizure behavior were observed. In the Racine's stage, seizure severity was classified as: 1, mouth and facial movements; 2, head nodding; 3, forelimb clonus; 4, rearing; 5, rearing and falling. From the next day onwards, electrical stimulation at the previously determined ADT was performed once daily in each rat. The rats showing ≥3 consecutive Racine stage‐5 seizures were deemed epileptic and used for drug evaluation. The pre‐ADT (i.e. baseline) seizure threshold of each rat was established prior to drug administration. After >1 hour following the determination of pre‐ADT seizure threshold, E2730 (5–50 mg/kg), levetiracetam (25 mg/kg), or vehicle was orally administered to the rats. One hour after the administration, the post‐ADT seizure threshold of each rat was ascertained, and the ratios of post‐ADT to pre‐ADT readings were analyzed.

Assay [3] addresses T2, rat brain synaptosomal membranes (Rattus norvegicus, UniProt P23978).
T2 construct: Synaptosomal membranes were prepared using the whole brain without cerebellum, brainstem, or olfactory bulb; from tissue; host or cells: rat whole brain without cerebellum, brainstem or olfactory bulb; synaptosomal membranes
Nature of the assay: Saturation binding of [3H]E2730 in rat brain synaptosomal membranes. The conditions noted are these: [3H]E2730, Scatchard plot. As for the experimental part: (§1) Synaptosomal membranes were prepared using the whole brain without cerebellum, brainstem, or olfactory bulb from Sprague Dawley rats (male, 7 weeks old) or human cerebral cortex based on Fuks et al.[10] and Hanada et al.[11] Synaptosomal membranes (0.4 mg protein/tube) were incubated with 9.8–5000 nM [^3H]E2730 for 120 minutes at 4°C. Non‐specific binding was defined as the residual binding observed in the presence of 1 mM unlabeled E2730. […] The filters were washed three times with ice‐cold 50 mM Tris–HCl buffer (pH 7.4) and incubated overnight in a scintillator (PerkinElmer), then the radioactivity was measured by a liquid scintillation counter (PerkinElmer).

Assay [4] has as its system 6 Hz-44 mA psychomotor seizure mice. Nature of the assay: Pharmaco-resistant 6 Hz-44 mA psychomotor seizures in mice. Type of assay: in vivo, mouse. The conditions noted are these: Mus musculus; oral, 1 hour before electrostimulation, ddY mice; read-out: ED50 (95% CI), 6 Hz-44 mA psychomotor seizures. The procedure: Psychomotor seizures were stimulated by applying currents (44 mA, 6 Hz, 0.2 millisecond rectangular pulse width, 3‐second duration each) via a corneal electrode (SEN‐7203; Nihon Kohden). E2730 (5–50 mg/kg), levetiracetam (Tokyo Chemical Industry; 20–200 mg/kg), or vehicle was orally administered to ddY mice (male, 5 weeks old; Japan SLC Inc.) 1 hour before electrostimulation. […] Behavioral seizures observed in mice were classified into the following four types: stun, forelimb clonus, twitching of the vibrissae, and Straub‐tail.

In assay [5] the target is T3, hGAT1 (Homo sapiens, UniProt P30531).
T3 construct: expressed in transfected cells; host or cells: HEK293
Nature of the assay: [3H]GABA uptake in hGAT1 stably expressing HEK293 cells. Type of assay: cell-based. The conditions noted are these: 50 μM [3H]GABA. The procedure: HEK293 cells stably expressing human GAT1 (hGAT1), GAT2 (hGAT2), GAT3 (hGAT3), or betaine/GABA transporter 1 (hBGT‐1) were plated onto 96‐well microtiter plates at a density of 4.0 × 10^4 cells/well in Dulbecco's Modified Eagle's Medium (DMEM, containing 10% fetal bovine serum, 100 units/mL penicillin, 100 μg/mL streptomycin, 1% non‐essential amino acid solution, and 25 mM HEPES) and incubated overnight at 37°C in a 5% CO2 atmosphere. After washing the cells with Hanks’ balanced salt solution (HBSS, containing 140 mg/L CaCl2, 100 mg/L MgCl2, 20 mM HEPES, and 10 mM NaOH), E2730 (0.0128–1000 μM) was added to the plate. Following the addition of 50 μM [^3H]GABA, cells were incubated for 5 minutes at 37°C in a 5% CO2 atmosphere and then washed with cold HBSS. Washed cells were incubated in a scintillator for 1 hour at room temperature, followed by radioactivity measurements using a liquid scintillation counter.

Assay [6] addresses T4, human brain synaptosomal membranes (Homo sapiens, UniProt P30531).
T4 construct: from tissue; host or cells: human cerebral cortex; synaptosomal membranes
Nature of the assay: Saturation binding of [3H]E2730 in human brain synaptosomal membranes. The procedure:
as §1

Assay [7] has as its system corneal kindling mice. Nature of the assay: Corneal kindling in mice. Format: in vivo. The conditions noted are these: Mus musculus; oral, 1 hour before electrical stimulation; read-out: ED50 (95% CI) in corneal kindling mice.
Description: A corneal kindling mouse model was developed following the method described by Potschka and Löscher.[7] Male C57BL/6N mice (5 weeks old; Charles River Laboratories Japan, Japan) were stimulated using corneal electrodes (4 mA, 50 Hz, 3‐second duration each) twice daily for 10 consecutive days, and stimulated mice were observed and rated based on the Racine's scale (0, no seizure; 1, mild facial clonus and eye blinking; 2, severe facial clonus, head nodding, or chewing; 3, unilateral or alternating forelimb clonus; 4, bilateral forelimb clonus and rearing; 5, bilateral forelimb clonus with rearing and falling). Mice with scores ≥3 were deemed epileptic, whereas mice with scores <3 were deemed non‐epileptic. Mice rated 4 or 5 (i.e. fully kindled mice) were used for drug evaluation.
For assay [8], the target named is T5, hGABAAR (containing α1, β3, and γ2 subunits) (Homo sapiens, UniProt P14867+P18507+P28472).
T5 construct: expressed in transfected cells; host or cells: HEK-293
T5 sequence (P14867 28-456): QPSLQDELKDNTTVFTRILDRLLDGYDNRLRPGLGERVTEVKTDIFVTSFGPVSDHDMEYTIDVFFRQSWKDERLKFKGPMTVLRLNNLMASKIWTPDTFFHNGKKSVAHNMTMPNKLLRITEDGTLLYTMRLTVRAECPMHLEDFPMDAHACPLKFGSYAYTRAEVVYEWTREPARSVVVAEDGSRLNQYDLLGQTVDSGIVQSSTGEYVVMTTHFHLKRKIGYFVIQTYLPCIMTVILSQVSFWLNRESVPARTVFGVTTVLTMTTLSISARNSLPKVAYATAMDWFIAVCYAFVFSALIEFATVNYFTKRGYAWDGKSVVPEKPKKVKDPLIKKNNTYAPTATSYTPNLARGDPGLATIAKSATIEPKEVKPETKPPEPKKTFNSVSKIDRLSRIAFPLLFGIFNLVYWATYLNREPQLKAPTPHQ
T5 sequence (P28472 26-473): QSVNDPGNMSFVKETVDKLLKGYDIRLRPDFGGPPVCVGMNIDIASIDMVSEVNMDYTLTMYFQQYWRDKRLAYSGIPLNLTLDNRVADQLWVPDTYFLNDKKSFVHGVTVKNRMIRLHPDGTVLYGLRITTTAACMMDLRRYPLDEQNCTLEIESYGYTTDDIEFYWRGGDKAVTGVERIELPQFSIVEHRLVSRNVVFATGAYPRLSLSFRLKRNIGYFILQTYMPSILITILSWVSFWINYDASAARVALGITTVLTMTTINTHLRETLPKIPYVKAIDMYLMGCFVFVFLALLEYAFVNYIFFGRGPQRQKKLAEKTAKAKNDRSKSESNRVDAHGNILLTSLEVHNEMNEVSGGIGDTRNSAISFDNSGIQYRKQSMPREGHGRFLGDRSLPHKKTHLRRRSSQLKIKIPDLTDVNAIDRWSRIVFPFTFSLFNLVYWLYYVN
T5 sequence (P18507 40-475): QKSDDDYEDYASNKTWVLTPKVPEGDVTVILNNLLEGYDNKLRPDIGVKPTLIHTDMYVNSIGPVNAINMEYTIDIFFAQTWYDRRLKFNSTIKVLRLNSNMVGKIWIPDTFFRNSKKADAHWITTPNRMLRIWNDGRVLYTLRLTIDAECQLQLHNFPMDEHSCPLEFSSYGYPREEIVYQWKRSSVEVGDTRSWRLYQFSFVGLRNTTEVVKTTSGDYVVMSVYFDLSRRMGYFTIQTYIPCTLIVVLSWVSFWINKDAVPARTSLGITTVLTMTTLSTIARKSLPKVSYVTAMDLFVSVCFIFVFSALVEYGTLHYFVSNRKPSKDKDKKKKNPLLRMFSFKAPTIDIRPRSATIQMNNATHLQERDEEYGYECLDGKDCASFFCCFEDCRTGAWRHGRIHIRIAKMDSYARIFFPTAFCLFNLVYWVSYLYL
Nature of the assay: GABA-induced current in hGABAAR-expressing HEK-293 cells, whole-cell patch-clamp. The conditions noted are these: up to 100 μM. Format: cell-based. The procedure: Data represent the mean ± SEM of 3 independent experiments. Control response is GABA (13 μM)-induced current amplitude. […] Cells in voltage clamp were maintained at -80 mV throughout the experiments following the voltage protocol.

In assay [9] the test system is panel of 86 receptors, transporters, and ion channels. Nature of the assay: Binding panel assay. The conditions noted are these: tested at 30 and 300 μM. As for the experimental part:
In this binding panel assay, E2730 was tested at 30 and 300 μM.

T1 sequence (Q99250 whole entry): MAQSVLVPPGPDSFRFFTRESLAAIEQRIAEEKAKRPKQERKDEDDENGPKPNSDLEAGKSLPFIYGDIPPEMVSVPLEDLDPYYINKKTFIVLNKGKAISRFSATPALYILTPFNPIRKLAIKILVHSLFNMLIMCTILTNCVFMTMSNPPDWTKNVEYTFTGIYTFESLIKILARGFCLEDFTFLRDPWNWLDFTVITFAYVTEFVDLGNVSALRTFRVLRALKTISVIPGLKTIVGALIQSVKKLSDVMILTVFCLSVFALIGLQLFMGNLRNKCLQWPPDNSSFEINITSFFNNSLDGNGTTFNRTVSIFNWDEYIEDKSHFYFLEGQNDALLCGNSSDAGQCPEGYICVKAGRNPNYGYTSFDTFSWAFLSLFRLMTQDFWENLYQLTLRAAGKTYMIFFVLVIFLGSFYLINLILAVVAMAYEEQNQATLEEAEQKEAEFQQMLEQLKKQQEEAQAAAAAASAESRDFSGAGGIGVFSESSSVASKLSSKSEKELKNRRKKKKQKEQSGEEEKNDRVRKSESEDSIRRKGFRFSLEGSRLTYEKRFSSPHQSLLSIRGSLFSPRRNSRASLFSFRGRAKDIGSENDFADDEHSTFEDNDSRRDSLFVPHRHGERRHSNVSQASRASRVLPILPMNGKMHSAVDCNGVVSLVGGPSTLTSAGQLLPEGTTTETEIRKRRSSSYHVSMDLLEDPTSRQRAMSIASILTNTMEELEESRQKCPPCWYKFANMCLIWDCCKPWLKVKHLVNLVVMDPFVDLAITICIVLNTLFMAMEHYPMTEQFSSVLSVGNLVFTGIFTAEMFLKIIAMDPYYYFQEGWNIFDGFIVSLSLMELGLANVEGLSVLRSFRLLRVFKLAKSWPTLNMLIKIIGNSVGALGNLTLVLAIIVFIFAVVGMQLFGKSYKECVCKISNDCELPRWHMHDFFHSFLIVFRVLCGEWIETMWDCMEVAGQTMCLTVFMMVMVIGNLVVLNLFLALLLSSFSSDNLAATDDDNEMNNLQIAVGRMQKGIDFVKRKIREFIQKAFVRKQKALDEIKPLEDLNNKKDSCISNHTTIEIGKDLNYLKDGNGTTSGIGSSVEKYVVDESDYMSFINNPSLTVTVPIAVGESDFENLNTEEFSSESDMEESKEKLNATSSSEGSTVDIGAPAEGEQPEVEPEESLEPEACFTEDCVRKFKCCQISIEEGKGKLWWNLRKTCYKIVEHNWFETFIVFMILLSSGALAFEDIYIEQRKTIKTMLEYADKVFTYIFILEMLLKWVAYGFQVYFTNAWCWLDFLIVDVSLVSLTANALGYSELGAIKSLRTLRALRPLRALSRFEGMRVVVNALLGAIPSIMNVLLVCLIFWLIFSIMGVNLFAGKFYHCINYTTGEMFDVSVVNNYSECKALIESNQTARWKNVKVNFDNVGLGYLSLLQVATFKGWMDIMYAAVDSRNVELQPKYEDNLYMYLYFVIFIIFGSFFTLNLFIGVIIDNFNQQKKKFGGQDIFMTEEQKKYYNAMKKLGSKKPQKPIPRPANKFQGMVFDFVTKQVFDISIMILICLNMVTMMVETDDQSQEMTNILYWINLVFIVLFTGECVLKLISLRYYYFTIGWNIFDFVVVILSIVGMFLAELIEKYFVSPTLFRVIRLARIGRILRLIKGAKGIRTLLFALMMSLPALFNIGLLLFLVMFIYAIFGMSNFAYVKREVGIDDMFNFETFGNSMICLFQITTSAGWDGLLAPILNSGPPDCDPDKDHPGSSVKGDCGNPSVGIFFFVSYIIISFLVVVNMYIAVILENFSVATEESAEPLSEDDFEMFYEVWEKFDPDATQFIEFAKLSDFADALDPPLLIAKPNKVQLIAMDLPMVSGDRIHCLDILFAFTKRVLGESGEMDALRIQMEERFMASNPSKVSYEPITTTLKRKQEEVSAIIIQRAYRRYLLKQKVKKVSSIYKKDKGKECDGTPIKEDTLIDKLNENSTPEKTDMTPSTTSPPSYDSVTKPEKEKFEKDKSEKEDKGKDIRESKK
T4 sequence (P30531 whole entry): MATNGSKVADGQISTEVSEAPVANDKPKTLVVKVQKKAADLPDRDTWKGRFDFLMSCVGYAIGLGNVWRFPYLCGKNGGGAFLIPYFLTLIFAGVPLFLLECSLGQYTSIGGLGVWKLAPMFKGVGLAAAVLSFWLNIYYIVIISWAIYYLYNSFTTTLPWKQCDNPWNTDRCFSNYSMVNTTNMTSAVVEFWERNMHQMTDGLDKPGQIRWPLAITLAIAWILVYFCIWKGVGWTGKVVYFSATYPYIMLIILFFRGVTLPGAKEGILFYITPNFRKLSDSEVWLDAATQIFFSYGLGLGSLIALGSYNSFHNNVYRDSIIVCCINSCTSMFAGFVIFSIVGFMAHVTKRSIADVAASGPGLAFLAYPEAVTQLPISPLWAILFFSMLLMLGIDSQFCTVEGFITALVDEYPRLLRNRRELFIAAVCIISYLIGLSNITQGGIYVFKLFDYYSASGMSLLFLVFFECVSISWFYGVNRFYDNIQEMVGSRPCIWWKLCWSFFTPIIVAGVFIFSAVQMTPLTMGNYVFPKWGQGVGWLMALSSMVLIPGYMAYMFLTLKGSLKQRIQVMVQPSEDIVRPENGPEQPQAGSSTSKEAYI

As for `NS(=O)(=O)N[C@H]1c2c(F)cc(F)cc2CC1(F)F` [E2730], the “effect on hNav1.2 activation” value in assay [1] was “did not inhibit; also recorded: did not directly affect”. Also, the post-ADT/pre-ADT ratio in [2] (E2730 10 mg/kg oral, 1 hour after administration) is listed as 129%; in [2] (E2730 20 mg/kg oral), 159%; in [2] (E2730 50 mg/kg oral), 191%. Also, in [2] (oral, footnote a: minimum effective dose), the “Minimum effective dose, amygdala kindling (rat)” value amounted to 10 mg/kg. The Bmax in [3] was 3419 fmol/mg protein; in assay [6], 2503 fmol/mg protein. Besides, the Kd in assay [3] turned out to be 553 nM; in assay [6], 710 nM. The ED50 in [4] is 17 mg/kg; in [7], 7.9 mg/kg. In addition, the IC50 in [5] came out at 1100 nM. Besides, the “effect on GABA-induced current” value in assay [8] is given as “did not directly affect”. Besides, the “binding in panel assay” value in assay [9] is on record as “no significant binding”.
